Laboratory results as given in patent US8748594B2, “Process for the preparation and purification of topiramate” (Scinopharm Taiwan, Ltd., priority 2010, dated 2014).

Assay: Solubility of topiramate in the first organic solvent (xylene, toluene)
Format: physicochemical
Protocol: It was further observed that the yield during the precipitation step can be improved when using xylene instead of toluene in the present invention. This is attributed to the fact that topiramate is less soluble in xylene compared to toluene. The solubility of topiramate in xylene was detected to be 0.0025 mg per mg xylene whereas the solubility of topiramate in toluene is 0.008 mg per mg solvent. Therefore, when using xylene as the first solvent in the present invention, the loss of topiramate in the mother liquid can be reduced.

solubility of topiramate in toluene (solvent toluene): 0.008 mg per mg solvent
solubility of topiramate in xylene (solvent xylene): 0.0025 mg per mg xylene
SMILES: CC1(C)O[C@@H]2[C@@H](CO[C@@]3(COS(N)(=O)=O)OC(C)(C)O[C@@H]23)O1 [topiramate, 2,3:4,5-bis-O-(1-methylethylidene)-β-D-fructopyranose sulfamate]
